These results are taken from US11439660B2, “Antimicrobial poly(alkylated imidazolium) salts” (NANYANG TECHNOLOGICAL UNIVERSITY, priority 2017, dated 2022).

Assay [1] relates to PAER (carbapenem-resistant Pseudomonas aeruginosa, CRPA). Particulars: imipenem control, 2 mg/kg, 3 doses.
Description: In another study, mice (5 per group) were treated with varied doses of PIM 1 at 1 h, 4 h and 8 h post-infection with PAO1. Positive and negative control groups of mice were injected with 2 mg/kg of imipenem and same volume of PBS respectively, at the same time point. At the 12th hour, all mice were euthanized with peritoneal washes performed via injecting 3.0 mL of PBS into the intraperitoneal cavity followed by massaging the abdomen for 1 min. After which, approximately 1 mL of peritoneal fluid was recovered to calculating the CFU of bacteria, as well as for immune cells quantification.
For carbapenem-resistant Acinetobacter baumannii (CRAB) and carbapenem-resistant Pseudomonas aeruginosa (CRPA) septicemia protection model, similar procedure was conducted with care and 5% mucin was injected together with the bacteria to have the mice immunocompromised (resulting in similar conditions as hospitalised patients).
Assay [2] has as its system AB-1 (carbapenem-resistant Acinetobacter baumannii, CRAB). Particulars: imipenem control, 2 mg/kg × 3 doses.
Description: In another study, mice (5 per group) were treated with varied doses of PIM 1 at 1 h, 4 h and 8 h post-infection with PAO1. Positive and negative control groups of mice were injected with 2 mg/kg of imipenem and same volume of PBS respectively, at the same time point. At the 12th hour, all mice were euthanized with peritoneal washes performed via injecting 3.0 mL of PBS into the intraperitoneal cavity followed by massaging the abdomen for 1 min. After which, approximately 1 mL of peritoneal fluid was recovered to calculating the CFU of bacteria, as well as for immune cells quantification. Bacterial loads were also evaluated in the spleen, liver and kidneys of the animals.
For carbapenem-resistant Acinetobacter baumannii (CRAB) and carbapenem-resistant Pseudomonas aeruginosa (CRPA) septicemia protection model, similar procedure was conducted with care and 5% mucin was injected together with the bacteria to have the mice immunocompromised (resulting in similar conditions as hospitalised patients). The amount of bacteria was analysed with one-way classification analysis of variance (ANOVA) and student's t-test (Graphpad Prism for Windows, version 7).
For another assay, the system named is SA29213. The assay is classed as cell-based, S. aureus. Particulars: serial passaging at sub-MIC levels, 21 days. As for the experimental part: Aliquots of the bacteria at various time points were stored in glycerol and kept at −80° C. for further study whenever resistance development was observed. Ofloxacin was used as the positive control.
A further assay relates to PAO1. The assay is described as follows: Mouse septicemia model, survival. Format: in vivo. Particulars: 1 mg/kg IP at 0.5 h, 4 h and 8 h post-infection; monitored over 7 days. As for the experimental part:
Given the excellent bacteria killing properties and biocompatibility of PIM 1 chloride, the therapeutic efficacy of this polymer was tested in vivo using a mouse septicemia model (FIG. 13). Balb/c female mice (7 weeks with one week quarantine) were used to test the PAO1 septic shock protection efficacy of PIM 1. Exponential phase of PAO1 was collected and washed twice with PBS, and re-suspended in the same volume of PBS. 300 μL of cell suspension containing 3×10^7 CFU of PAO1 was introduced into each mouse via intraperitoneal injection to induce septic shock. […] The survival rate of the mice was monitored over 7 days.

As to `C[C@@H](O)[C@H]1C(=O)N2C(C(=O)O)=C(SCCN=CN)C[C@H]12` [imipenem], the “reduction in the population of CRPA in the intraperitoneal fluid (in words)” value in assay [1] is given as “no reduction”. Further, the “removal of AB-1 from the peritoneal fluid (in words)” value in assay [2] is “did not show any removal”. In the case of `CC1COc2c(N3CCN(C)CC3)c(F)cc3c(=O)c(C(=O)O)cn1c23` (stereo not shown) [ofloxacin], in the assay with SA29213, the resistance evolution result is listed as “above 128 MIC fold change”. In the assay on PAO1, colistin showed a survival rate of 80%.
